Source: ChEMBL document CHEMBL1201862, “PubChem BioAssay data set” (2004)
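48-hour exposure; five concentrations; linearly interpolated endpoints. GI50 is the concentration that inhibits growth by half.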 Activity calls are given as the source filed them. No stated cut-off is given here; in the data, active = GI50 up to about 1.1 µM and inactive = higher.

Assays:
Test in all cases: NCI anticancer screen, dose series, 48 h
[1] = system: A498
[2] = system: A549
[3] = system: CCRF-CEM
[4] = system: COLO 205
[5] = system: DU-145
[6] = system: HOP-62
[7] = system: KM12
[8] = system: MCF7
[9] = system: MDA-MB-231
[10] = system: Malme-3M
[11] = system: NCI-H522
[12] = system: OVCAR-4
[13] = system: RPMI-8226
[14] = system: RXF 393
[15] = system: SK-MEL-28
[16] = system: SNB-19
[17] = system: SNB-75
[18] = system: SW-620
[19] = system: UACC-62

Measured: GI50

O=c1oc2ccccc2cc1-c1cn2ccccc2n1
inactive: [1] 2.24 µM | [2] 5.48 µM | [3] 5.18 µM | [4] 30.1 µM | [5] 7.82 µM | [6] 3.24 µM | [7] 10.5 µM | [8] 13.8 µM | [9] 6.4 µM | [10] 3.22 µM | [11] 3.31 µM | [12] 4.08 µM | [13] 10.4 µM | [14] 3.85 µM | [15] 4.4 µM | [16] 3.32 µM | [17] 2.47 µM | [18] 10.4 µM | [19] 4.65 µM

CC(=O)NC1C(OCc2ccccc2)OC(CO)C(O)C1OCC(=O)N[C@@H](C)C(=O)N[C@H](CCC(=O)NCCNCCNc1c2ccccc2nc2cccc([N+](=O)[O-])c12)C(N)=O (stereo partly specified)
inactive: [1] 19.8 µM | [2] 35.4 µM | [3] 24 µM | [4] 25 µM | [5] 36.6 µM | [6] 41.4 µM | [7] 24.2 µM | [8] 37.9 µM | [9] 34.8 µM | [10] 19.2 µM | [11] 4.92 µM | [12] 17.3 µM | [13] 24.4 µM | [14] 36.4 µM | [15] > 100 µM | [16] 38.9 µM | [17] 33.2 µM | [18] 39.1 µM | [19] 17.7 µM

CCC1=NC(C(F)(F)F)(C(F)(F)F)N=C(/N=C(/N)N(C)C(C(C)C)P(=O)(OC(C)C)OC(C)C)O1 (stereo unspecified)
inactive: [1] > 100 µM | [2] > 100 µM | [3] > 100 µM | [4] > 100 µM | [5] > 100 µM | [6] > 100 µM | [7] > 100 µM | [8] > 100 µM | [9] > 100 µM | [10] > 100 µM | [11] > 100 µM | [12] > 100 µM | [13] > 100 µM | [14] > 100 µM | [15] > 100 µM | [16] > 100 µM | [17] > 100 µM | [18] > 100 µM | [19] > 100 µM

Cc1cc2[nH]c(Cl)c(/C=C3\C(=O)Nc4ccccc43)c2cc1O
inactive: [1] 4.05 µM | [2] 5.08 µM | [3] 1.2 µM | [4] 13.8 µM | [5] 2.86 µM | [6] 4.93 µM | [7] 2.92 µM | [8] 1.88 µM | [9] 3.09 µM | [10] 1.6 µM | [11] 1.5 µM | [12] 7.52 µM | [13] 2.7 µM | [14] 2.25 µM | [15] 9.71 µM | [16] 3.27 µM | [17] 3.45 µM | [18] 1.81 µM | [19] 1.23 µM

N#Cc1ccc(C(=O)/C=C/c2ccc(O)c(O)c2)cc1
inactive: [1] 17.7 µM | [2] 15.3 µM | [3] 1.4 µM | [4] 16.7 µM | [5] 16.3 µM | [6] 17.9 µM | [7] 13.9 µM | [8] 13 µM | [9] 15.6 µM | [10] 15.7 µM | [11] 1.53 µM | [12] 12.4 µM | [13] 3.1 µM | [14] 16.8 µM | [15] 15.5 µM | [16] 15.8 µM | [17] 17.4 µM | [18] 13.2 µM | [19] 17.1 µM

Nc1ccccc1.O=P(O)(O)c1ccccc1
inactive: [1] > 100 µM | [2] > 100 µM | [3] > 100 µM | [4] > 100 µM | [5] > 100 µM | [6] > 100 µM | [7] > 100 µM | [8] > 100 µM | [9] > 100 µM | [10] > 100 µM | [11] > 100 µM | [12] > 100 µM | [13] > 100 µM | [14] > 100 µM | [15] > 100 µM | [16] > 100 µM | [17] 17.6 µM | [18] > 100 µM | [19] > 100 µM

N=C(N)NS(=O)(=O)c1ccc(NNc2c3ccccc3nc3c(C(=O)Nc4ccc(S(N)(=O)=O)cc4)cccc23)cc1
inactive: [1] > 100 µM | [2] > 100 µM | [3] 8.24 µM | [4] 31 µM | [5] 94 µM | [6] 53.7 µM | [7] 30.8 µM | [8] 8.47 µM | [9] 27.9 µM | [10] 20.6 µM | [11] 14.7 µM | [12] 51.2 µM | [13] 17.8 µM | [14] 40.6 µM | [15] 68.1 µM | [16] 22.9 µM | [17] 26.4 µM | [18] 22.1 µM | [19] 18.7 µM

C/C=C/COc1cc(NC(=S)c2ccoc2C)ccc1OC
inactive: [1] 49.3 µM | [2] > 100 µM | [3] > 100 µM | [4] > 100 µM | [5] 71.1 µM | [6] 34.7 µM | [7] > 100 µM | [8] > 100 µM | [9] 29.5 µM | [10] 89.1 µM | [11] 66.1 µM | [12] 23 µM | [13] 23 µM | [14] > 100 µM | [15] > 100 µM | [16] 26.7 µM | [17] 27.7 µM | [18] > 100 µM | [19] > 100 µM

CC1CCCCCC(=O)c2c(O)cc(O)cc2CC(=O)O1 (stereo unspecified) [CURVULARIN]
inactive: [1] > 100 µM | [2] > 100 µM | [3] 74.3 µM | [4] > 100 µM | [5] > 100 µM | [6] > 100 µM | [7] > 100 µM | [8] > 100 µM | [9] > 100 µM | [10] > 100 µM | [11] > 100 µM | [12] > 100 µM | [13] 67.8 µM | [14] > 100 µM | [15] > 100 µM | [16] > 100 µM | [17] 57.4 µM | [18] > 100 µM | [19] > 100 µM

COc1ccc(CN2C[C@H]3[C@@H](CC(=O)O[C@H]3C)CC2=O)cc1
inactive: [1] > 100 µM | [2] > 100 µM | [3] > 100 µM | [4] > 100 µM | [5] > 100 µM | [6] > 100 µM | [7] > 100 µM | [8] > 100 µM | [9] > 100 µM | [10] > 100 µM | [11] > 100 µM | [12] > 100 µM | [13] > 100 µM | [14] > 100 µM | [15] > 100 µM | [16] > 100 µM | [17] > 100 µM | [18] > 100 µM | [19] > 100 µM

CC(C)[Si](OC1=C(C(=O)N(C)c2ccccc2Cl)CCCC1)(C(C)C)C(C)C
inactive: [1] 16.9 µM | [2] 1.57 µM | [3] 12.7 µM | [4] 14.5 µM | [5] 10.6 µM | [6] 18 µM | [7] 14.2 µM | [8] 13.2 µM | [9] 16.3 µM | [10] 13 µM | [11] 5.77 µM | [12] 13.9 µM | [13] 10.3 µM | [14] 16.1 µM | [15] 19 µM | [16] 12.8 µM | [17] 14.3 µM | [18] 15.2 µM | [19] 15.7 µM

CN(C)CCCN1c2ccccc2C(C)(C)c2ccccc21 [DIMETACRINE]
inactive: [1] 11 µM | [2] 14.8 µM | [3] 22.4 µM | [4] 14.6 µM | [5] 15.9 µM | [6] 14.8 µM | [7] 14.1 µM | [8] 14.8 µM | [9] 14.7 µM | [10] 14.7 µM | [11] 14.8 µM | [12] 13.9 µM | [13] 13.1 µM | [14] 12.9 µM | [15] 15.4 µM | [16] 15.5 µM | [17] 10.9 µM | [18] 21.2 µM | [19] 13.1 µM

CC1(C)C(=O)/C=C\C(=O)C(C)(C)C(=O)/C=C\C(=O)C(C)(C)C(=O)/C=C\C(=O)C(C)(C)C(=O)/C=C\C1=O
inactive: [1] > 68.5 µM | [2] > 70.8 µM | [3] 3.51 µM | [4] 15.5 µM | [5] > 100 µM | [6] > 100 µM | [7] 40 µM | [8] 45.9 µM | [9] 26.2 µM | [10] 17.1 µM | [11] 8.41 µM | [12] 30.3 µM | [13] 4.97 µM | [14] 17.9 µM | [15] 26.5 µM | [16] 52.5 µM | [17] > 60 µM | [18] 11.1 µM | [19] 21.9 µM

Nc1n[n+](CC(=O)c2ccccc2)c2sc(-c3ccccc3)nn12
inactive: [1] > 100 µM | [2] > 100 µM | [3] 45.7 µM | [4] > 100 µM | [5] > 100 µM | [6] > 100 µM | [7] 46.1 µM | [8] 51.4 µM | [9] > 100 µM | [10] > 100 µM | [11] 95.5 µM | [12] > 100 µM | [13] 60 µM | [14] > 100 µM | [15] > 100 µM | [16] > 100 µM | [17] > 100 µM | [18] 36.8 µM | [19] 13.9 µM
